tested on: Mus musculus; assay: Antiinflammatory activity in iv dosed ICR mouse model of CLP-induced sepsis assessed as increase in survival rate; assay type: functional

Row | SMILES | Survival [%]
1 | CCCNc1nc2nc3c(c(-c4ccc(OC)cc4)c2s1)CCCC3 | 40
2 | CCCNc1nc2nc3c(c(-c4ccc(OC)cc4)c2s1)CCCCC3 | 40
3 | CCCNc1nc2nc3c(c(-c4ccccc4)c2s1)CCCCC3 | 40
4 | O=[N+]([O-])c1ccc(-c2c3c(nc4nc(N5CCCC5)sc24)CCCC3)cc1 | 40
